Reference: patent publication US20240270762A1, “PENICILLIN-BINDING PROTEIN INHIBITORS” (priority 2021, published 2024)
Converted amounts (≈) assume the structure as drawn. Read-outs that look alike come from different tables or passages of the source.

Assays:
[1] = test system: B. humptydooensis ATCC BAA-2767; assay: microbe, parasite or virus in culture; format: cell-based; conditions: Burkholderia humptydooensis, ATCCBAA2767, read-out: Minimum inhibitory concentration (MIC), B. humptydooensis ATCC BAA-2767
P. aeruginosa CDC-0054 = assay: microbe, parasite or virus in culture; format: cell-based; conditions: Pseudomonas aeruginosa, CDC0054, read-out: Minimum inhibitory concentration, P. aeruginosa CDC-0054
A. baumannii PBP1a = target: T1, A. baumannii PBP1a (Acinetobacter baumannii, UniProt A0ABX6CK30); assay: Bocillin-FL competition binding via gel filtration, A. baumannii PBP1a; conditions: competition binding assay using Bocillin-FL via gel filtration; read-out: A. baumannii PBP1a Potency
T1 sequence (A0ABX6CK30 1-851): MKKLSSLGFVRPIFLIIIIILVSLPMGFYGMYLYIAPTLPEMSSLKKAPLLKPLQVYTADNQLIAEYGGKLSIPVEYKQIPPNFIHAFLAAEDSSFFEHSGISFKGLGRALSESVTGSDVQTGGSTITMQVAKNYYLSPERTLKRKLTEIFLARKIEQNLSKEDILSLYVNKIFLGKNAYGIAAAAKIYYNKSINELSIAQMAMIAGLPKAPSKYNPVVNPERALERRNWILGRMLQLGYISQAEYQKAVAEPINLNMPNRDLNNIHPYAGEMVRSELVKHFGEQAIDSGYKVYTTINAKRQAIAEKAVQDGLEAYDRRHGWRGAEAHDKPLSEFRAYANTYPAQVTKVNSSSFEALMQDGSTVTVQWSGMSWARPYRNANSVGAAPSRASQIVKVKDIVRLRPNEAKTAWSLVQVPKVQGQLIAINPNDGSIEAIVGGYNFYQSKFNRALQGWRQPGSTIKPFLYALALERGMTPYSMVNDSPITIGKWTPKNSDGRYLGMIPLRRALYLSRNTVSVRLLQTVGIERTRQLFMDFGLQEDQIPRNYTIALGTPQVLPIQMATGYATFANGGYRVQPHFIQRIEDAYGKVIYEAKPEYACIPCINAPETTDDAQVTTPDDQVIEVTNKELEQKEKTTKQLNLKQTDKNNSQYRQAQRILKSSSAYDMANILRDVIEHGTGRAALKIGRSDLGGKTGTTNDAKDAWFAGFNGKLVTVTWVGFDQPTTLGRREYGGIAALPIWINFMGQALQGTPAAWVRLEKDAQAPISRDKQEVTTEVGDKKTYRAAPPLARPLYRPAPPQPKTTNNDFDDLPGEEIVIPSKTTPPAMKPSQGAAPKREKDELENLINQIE
Description: (§1) Affinity to A. baumannii PBP1a and PBP2 was assessed a competitive equilibrium binding assay using Bocillin-FL as the reporter molecule. Enzyme was pre-incubated with increasing concentrations of inhibitors, prior to addition of Bocillin and further incubation for 15 minutes. PBP bound with Bocillin-FL was separated by gel filtration using 96-well Zeba Spin size exclusion plates, and the fluorescence measured. The inhibitor affinity (reported as the EC50) was determined by plotting the fraction of PBP bound with Bocillin-FL at each inhibitor concentration against the inhibitor concentration, and fitting the data to the following equation:
(§2) [formula] • where y is the fraction bound at a given inhibitor concentration, ymin is the fraction bound when the enzyme is completely inactivated, ymax is the maximum (uninhibited) fraction bound, n is the Hill coefficient, and x is the inhibitor concentration.

P. aeruginosa ATCC 35151 = assay: microbe, parasite or virus in culture; format: cell-based; conditions: Pseudomonas aeruginosa, ATCC35151, read-out: Minimum inhibitory concentration, P. aeruginosa ATCC 35151
P. aeruginosa CDC-0095 = assay: microbe, parasite or virus in culture; format: cell-based; conditions: Pseudomonas aeruginosa, CDC0095, read-out: Minimum inhibitory concentration, P. aeruginosa CDC-0095
[2] = test system: P. aeruginosa (ΔmexAB-oprM); assay: Broth microdilution MIC in iron-depleted CAMHB (IDM); format: cell-based; conditions: Pseudomonas aeruginosa, read-out: Minimum inhibitory concentration, P. aeruginosa ΔmexAB-oprM
P. aeruginosa CDC-0090 = assay: microbe, parasite or virus in culture; format: cell-based; conditions: Pseudomonas aeruginosa, CDC0090, read-out: Minimum inhibitory concentration, P. aeruginosa CDC-0090
P. aeruginosa ATCC 27853 = assay: microbe, parasite or virus in culture; format: cell-based; conditions: Pseudomonas aeruginosa, ATCC27853, read-out: Minimum inhibitory concentration, P. aeruginosa ATCC 27853
A. baumannii PBP2 = A. baumannii PBP2 (Acinetobacter baumannii, UniProt D0C8Z9); assay: Bocillin-FL competition binding via gel filtration, A. baumannii PBP2
Sequence of A. baumannii PBP2 (D0C8Z9 whole entry): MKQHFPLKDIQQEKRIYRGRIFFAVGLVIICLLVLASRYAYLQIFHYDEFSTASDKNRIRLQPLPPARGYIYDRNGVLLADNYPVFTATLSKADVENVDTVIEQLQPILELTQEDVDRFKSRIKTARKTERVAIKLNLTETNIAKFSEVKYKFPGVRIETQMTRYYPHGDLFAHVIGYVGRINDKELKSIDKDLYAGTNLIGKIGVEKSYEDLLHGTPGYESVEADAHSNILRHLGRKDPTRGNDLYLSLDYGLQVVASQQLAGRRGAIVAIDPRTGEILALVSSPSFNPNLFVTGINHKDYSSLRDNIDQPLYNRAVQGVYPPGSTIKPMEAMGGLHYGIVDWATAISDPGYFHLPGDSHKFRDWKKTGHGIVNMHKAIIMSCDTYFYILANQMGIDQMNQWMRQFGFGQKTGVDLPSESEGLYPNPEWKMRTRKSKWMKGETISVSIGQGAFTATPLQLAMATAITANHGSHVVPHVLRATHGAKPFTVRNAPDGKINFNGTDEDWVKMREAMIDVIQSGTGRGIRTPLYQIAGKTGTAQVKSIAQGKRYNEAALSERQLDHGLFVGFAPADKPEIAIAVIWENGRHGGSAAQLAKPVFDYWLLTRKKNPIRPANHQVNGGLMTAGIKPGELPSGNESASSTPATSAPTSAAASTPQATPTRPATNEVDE
Description: as §1, §2

P. aeruginosa CDC-0110 = assay: microbe, parasite or virus in culture; format: cell-based; conditions: Pseudomonas aeruginosa, CDC0110, read-out: Minimum inhibitory concentration, P. aeruginosa CDC-0110
[3] = test system: B. thailandensis ATCC 700388; assay: microbe, parasite or virus in culture; format: cell-based; conditions: Burkholderia thailandensis, ATCC700388, read-out: Minimum inhibitory concentration (MIC), B. thailandensis ATCC 700388

Compound: NCc1ccc(C(=O)N2CCC(N3CCN(C(=O)NC(C(=O)N[C@H]4Cc5ccc(F)c(C(=O)O)c5OB4O)c4cc(F)c(O)c(O)c4Cl)C3=O)CC2)cc1 (single isomer, unassigned) [Example 604]
- MIC [1]: < 1 µg/mL
- MIC (P. aeruginosa CDC-0054): < 1 µg/mL
- EC50 (A. baumannii PBP1a): 10 to 50 µM
- MIC (P. aeruginosa ATCC 35151): < 1 µg/mL
- MIC (P. aeruginosa CDC-0095): 2 to 4 µg/mL (≈ 2.59 to 5.19 µM)
- MIC [2]: < 1 µg/mL
- MIC (P. aeruginosa CDC-0090): < 1 µg/mL
- MIC (P. aeruginosa ATCC 27853): < 1 µg/mL
- EC50 (A. baumannii PBP2): 10 to 50 µM
- MIC (P. aeruginosa CDC-0110): < 1 µg/mL
- MIC [3]: < 1 µg/mL

Compound: NCc1cc(O)cc(C(=O)N2CCC(N3CCN(C(=O)N[C@@H](C(=O)N[C@H]4Cc5ccc(F)c(C(=O)O)c5OB4O)c4cc(F)c(O)c(O)c4Cl)C3=O)CC2)c1 (single isomer, unassigned) [Example 615]
- MIC [1]: < 1 µg/mL
- MIC (P. aeruginosa CDC-0054): < 1 µg/mL
- EC50 (A. baumannii PBP1a): 10 to 50 µM
- MIC (P. aeruginosa ATCC 35151): < 1 µg/mL
- MIC (P. aeruginosa CDC-0095): < 1 µg/mL
- MIC [2]: < 1 µg/mL
- MIC (P. aeruginosa CDC-0090): < 1 µg/mL
- MIC (P. aeruginosa ATCC 27853): < 1 µg/mL
- EC50 (A. baumannii PBP2): 10 to 50 µM
- MIC (P. aeruginosa CDC-0110): < 1 µg/mL
- MIC [3]: < 1 µg/mL

Compound: NCc1ccc(C(=O)N2CCC(N3CCN(C(=O)NC(C(=O)N[C@H]4Cc5ccc(F)c(C(=O)O)c5OB4O)c4cc(F)c(O)c(O)c4Cl)C3=O)CC2)cc1O (single isomer, unassigned) [Example 616]
- MIC [1]: < 1 µg/mL
- MIC (P. aeruginosa CDC-0054): < 1 µg/mL
- EC50 (A. baumannii PBP1a): 10 to 50 µM
- MIC (P. aeruginosa ATCC 35151): < 1 µg/mL
- MIC (P. aeruginosa CDC-0095): < 1 µg/mL
- MIC [2]: < 1 µg/mL
- MIC (P. aeruginosa CDC-0090): < 1 µg/mL
- MIC (P. aeruginosa ATCC 27853): < 1 µg/mL
- EC50 (A. baumannii PBP2): 10 to 50 µM
- MIC (P. aeruginosa CDC-0110): < 1 µg/mL
- MIC [3]: 2 to 4 µg/mL (≈ 2.54 to 5.08 µM)

Compound: O=C(O)c1c(F)ccc2c1OB(O)[C@@H](NC(=O)[C@@H](NC(=O)N1CCN(C3CCN(S(=O)(=O)c4ccc5[nH]nnc5c4)CC3)C1=O)c1cc(F)c(O)c(O)c1Cl)C2 (single isomer, unassigned) [Example 620]
- MIC [1]: > 128 µg/mL
- MIC (P. aeruginosa CDC-0054): 2 to 4 µg/mL (≈ 2.44 to 4.88 µM)
- EC50 (A. baumannii PBP1a): < 10 µM
- MIC (P. aeruginosa ATCC 35151): < 1 µg/mL
- MIC (P. aeruginosa CDC-0095): > 128 µg/mL
- MIC [2]: < 1 µg/mL
- MIC (P. aeruginosa CDC-0090): 2 to 4 µg/mL (≈ 2.44 to 4.88 µM)
- MIC (P. aeruginosa ATCC 27853): 2 to 4 µg/mL (≈ 2.44 to 4.88 µM)
- EC50 (A. baumannii PBP2): < 10 µM
- MIC (P. aeruginosa CDC-0110): > 128 µg/mL
- MIC [3]: > 128 µg/mL

Compound: O=C(O)c1c(F)ccc2c1OB(O)[C@@H](NC(=O)[C@H](NC(=O)N1CCN(C3CCN(S(=O)(=O)c4ccc5[nH]nnc5c4)CC3)C1=O)c1cc(F)c(O)c(O)c1Cl)C2 (single isomer, unassigned) [Example 621]
- MIC [1]: < 1 µg/mL
- MIC (P. aeruginosa CDC-0054): < 1 µg/mL
- EC50 (A. baumannii PBP1a): < 10 µM
- MIC (P. aeruginosa ATCC 35151): < 1 µg/mL
- MIC (P. aeruginosa CDC-0095): < 1 µg/mL
- MIC [2]: < 1 µg/mL
- MIC (P. aeruginosa CDC-0090): < 1 µg/mL
- MIC (P. aeruginosa ATCC 27853): < 1 µg/mL
- EC50 (A. baumannii PBP2): < 10 µM
- MIC (P. aeruginosa CDC-0110): < 1 µg/mL
- MIC [3]: 2 to 4 µg/mL (≈ 2.44 to 4.88 µM)

Compound: O=C(O)c1c(F)ccc2c1OB(O)[C@@H](NC(=O)[C@H](NC(=O)N1CCN(C3CCN(Cc4ccnnc4)CC3)C1=O)c1cc(F)c(O)c(O)c1Cl)C2 [Example 601, (R)-3-((R)-2-(2-chloro-5-fluoro-3,4-dihydroxyphenyl)-2-(2-oxo-3-(1-(pyridazin-4-ylmethyl)piperidin-4-yl)imidazolidine-1-carboxamido)acetamido)-7-fluoro-2-hydroxy-3,4-dihydro-2H-benzo[e][1,2]oxaborinine-8-carboxylic acid]
- MIC [1]: < 1 µg/mL
- MIC (P. aeruginosa CDC-0054): < 1 µg/mL
- EC50 (A. baumannii PBP1a): < 10 µM
- MIC (P. aeruginosa ATCC 35151): < 1 µg/mL
- MIC (P. aeruginosa CDC-0095): 2 to 4 µg/mL (≈ 2.74 to 5.48 µM)
- MIC [2]: < 1 µg/mL
- MIC (P. aeruginosa CDC-0090): 2 to 4 µg/mL (≈ 2.74 to 5.48 µM)
- MIC (P. aeruginosa ATCC 27853): < 1 µg/mL
- EC50 (A. baumannii PBP2): 10 to 50 µM
- MIC (P. aeruginosa CDC-0110): < 1 µg/mL
- MIC [3]: < 1 µg/mL

Compound: NCc1cccc(C(=O)N2CCC(N3CCN(C(=O)N[C@@H](C(=O)N[C@H]4Cc5ccc(F)c(C(=O)O)c5OB4O)c4cc(F)c(O)c(O)c4Cl)C3=O)CC2)c1 [Example 603, (R)-3-((R)-2-(3-(1-(3-(aminomethyl)benzoyl)piperidin-4-yl)-2-oxoimidazolidine-1-carboxamido)-2-(2-chloro-5-fluoro-3,4-dihydroxyphenyl)acetamido)-7-fluoro-2-hydroxy-3,4-dihydro-2H-benzo[e][1,2]oxaborinine-8-carboxylic acid]
- MIC [1]: < 1 µg/mL
- MIC (P. aeruginosa CDC-0054): < 1 µg/mL
- EC50 (A. baumannii PBP1a): 10 to 50 µM
- MIC (P. aeruginosa ATCC 35151): < 1 µg/mL
- MIC (P. aeruginosa CDC-0095): 2 to 4 µg/mL (≈ 2.59 to 5.19 µM)
- MIC ([2]; iron-depleted CAMHB (IDM), […]): < 1 µg/mL
- MIC (P. aeruginosa CDC-0090): 2 to 4 µg/mL (≈ 2.59 to 5.19 µM)
- MIC (P. aeruginosa ATCC 27853): < 1 µg/mL
- EC50 (A. baumannii PBP2): 10 to 50 µM
- MIC (P. aeruginosa CDC-0110): < 1 µg/mL
- MIC [3]: < 1 µg/mL

Compound: O=C(O)c1c(F)ccc2c1OB(O)[C@@H](NC(=O)[C@H](NC(=O)N1CCN(C3CCN(S(=O)(=O)c4ccc5[nH]nnc5c4)CC3)C1=O)c1cc(F)c(O)c(O)c1F)C2 [Example 622, (R)-3-((R)-2-(3-(1-((1H-benzo[d][1,2,3]triazol-5-yl)sulfonyl)piperidin-4-yl)-2-oxoimidazolidine-1-carboxamido)-2-(2,5-difluoro-3,4-dihydroxyphenyl)acetamido)-7-fluoro-2-hydroxy-3,4-dihydro-2H-benzo[e][1,2]oxaborinine-8-carboxylic acid]
- MIC (P. aeruginosa CDC-0054): < 1 µg/mL
- MIC (P. aeruginosa ATCC 35151): < 1 µg/mL
- MIC (P. aeruginosa CDC-0095): 2 to 4 µg/mL (≈ 2.49 to 4.98 µM)
- MIC ([2]; iron-depleted CAMHB (IDM), […]): < 1 µg/mL
- MIC (P. aeruginosa CDC-0090): < 1 µg/mL
- MIC (P. aeruginosa ATCC 27853): 2 to 4 µg/mL (≈ 2.49 to 4.98 µM)
- MIC (P. aeruginosa CDC-0110): < 1 µg/mL
- MIC [3]: 2 to 4 µg/mL (≈ 2.49 to 4.98 µM)

Compound: O=C(O)c1c(F)ccc2c1OB(O)[C@@H](NC(=O)[C@H](NC(=O)N1CCN(C3CCN(C(=O)c4cc(O)cc(O)c4)CC3)C1=O)c1cc(F)c(O)c(O)c1F)C2 [Example 623, (R)-3-((R)-2-(2,5-difluoro-3,4-dihydroxyphenyl)-2-(3-(1-(3,5-dihydroxybenzoyl)piperidin-4-yl)-2-oxoimidazolidine-1-carboxamido)acetamido)-7-fluoro-2-hydroxy-3,4-dihydro-2H-benzo[e][1,2]oxaborinine-8-carboxylic acid]
- MIC (P. aeruginosa CDC-0054): < 1 µg/mL
- MIC (P. aeruginosa ATCC 35151): < 1 µg/mL
- MIC (P. aeruginosa CDC-0095): < 1 µg/mL
- MIC ([2]; iron-depleted CAMHB (IDM), […]): < 1 µg/mL
- MIC (P. aeruginosa CDC-0090): < 1 µg/mL
- MIC (P. aeruginosa ATCC 27853): < 1 µg/mL
- MIC (P. aeruginosa CDC-0110): < 1 µg/mL
- MIC [3]: < 1 µg/mL
